Data published in publication PMC9386255, “Specialized acyl carrier protein used by serine palmitoyltransferase to synthesize sphingolipids in Rhodobacteria” (Frontiers in Microbiology, 2022).

Experiments:
Type in all cases: biochemical
[1] = molecular target: T1, FadDSm, acyl-CoA synthetase FadD from S. meliloti 1021 (Sinorhizobium meliloti, UniProt Q7APF7); assay: [3H]palmitoyl-CoA formation, heptane extraction, scintillation counting; settings: 10 mM ATP, 10 mM MgSO4, 1 mM Triton X-100, pH 8.0, 37 C, 40 uM CoA
T1 construct: full length, His6-tagged (pET28a, pECH3), E. coli BL21(DE3) pLysS host, IMAC-purified, tag kept

[2] = molecular target: T2, SPTCc (CC_1162), serine palmitoyltransferase (Caulobacter vibrioides, UniProt Q9A932); assay: L-[…]serine incorporation into 3-oxo-sphinganine, TLC autoradiography, empty-vector control; settings: 10 uM palmitoyl-CoA, 432 uM L-[14C]serine, 10 uM pyridoxal phosphate, pH 7.5, 30 C; minor product
T2 construct: full length, expressed from pET9a (pJPG08) in E. coli BL21(DE3) pLysS, cell-free extract
T2 sequence (Q9A932 1-404): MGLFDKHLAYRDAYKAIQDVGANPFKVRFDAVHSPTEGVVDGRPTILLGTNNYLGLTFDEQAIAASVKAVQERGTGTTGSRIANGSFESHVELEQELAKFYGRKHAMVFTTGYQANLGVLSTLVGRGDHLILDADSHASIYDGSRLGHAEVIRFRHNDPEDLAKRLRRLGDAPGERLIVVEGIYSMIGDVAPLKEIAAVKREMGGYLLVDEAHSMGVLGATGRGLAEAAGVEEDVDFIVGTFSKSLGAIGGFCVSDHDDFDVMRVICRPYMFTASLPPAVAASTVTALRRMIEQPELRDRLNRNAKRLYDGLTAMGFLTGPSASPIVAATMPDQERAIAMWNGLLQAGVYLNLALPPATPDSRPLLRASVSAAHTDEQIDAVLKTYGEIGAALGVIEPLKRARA

[3] = molecular target: T3, SPTEc (ECD_02854), serine palmitoyltransferase (Escherichia coli, UniProt B1LEF2); assay: as above; settings: 10 uM palmitoyl-CoA, 432 uM L-[14C]serine, 10 uM pyridoxal phosphate, pH 7.5, 30 C; minor product
T3 construct: gene EcSMS35_3263; full length, expressed from pET9a (pJPG01) in E. coli BL21(DE3) pLysS, cell-free extract
T3 sequence (B1LEF2 1-390): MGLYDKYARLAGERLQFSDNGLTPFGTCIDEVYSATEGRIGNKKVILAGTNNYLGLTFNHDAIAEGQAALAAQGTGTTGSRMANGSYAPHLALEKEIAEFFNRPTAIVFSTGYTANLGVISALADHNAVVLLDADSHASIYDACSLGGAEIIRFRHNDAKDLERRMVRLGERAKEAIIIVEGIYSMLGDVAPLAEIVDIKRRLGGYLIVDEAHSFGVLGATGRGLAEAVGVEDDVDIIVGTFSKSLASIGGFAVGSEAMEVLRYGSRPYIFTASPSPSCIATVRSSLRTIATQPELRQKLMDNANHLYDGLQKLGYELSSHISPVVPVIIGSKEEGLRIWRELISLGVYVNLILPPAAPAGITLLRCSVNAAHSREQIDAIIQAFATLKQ

[4] = molecular target: T4, SPTSw (Swit_3900), serine palmitoyltransferase (Rhizorhabdus wittichii, UniProt A0A9J9HEF8); assay: as above; settings: 10 uM palmitoyl-CoA, 432 uM L-[14C]serine, 10 uM pyridoxal phosphate, pH 7.5, 30 C; minor product
T4 construct: full length, expressed from pET9a (pJPG02) in E. coli BL21(DE3) pLysS, cell-free extract
T4 sequence (A0A9J9HEF8 1-400): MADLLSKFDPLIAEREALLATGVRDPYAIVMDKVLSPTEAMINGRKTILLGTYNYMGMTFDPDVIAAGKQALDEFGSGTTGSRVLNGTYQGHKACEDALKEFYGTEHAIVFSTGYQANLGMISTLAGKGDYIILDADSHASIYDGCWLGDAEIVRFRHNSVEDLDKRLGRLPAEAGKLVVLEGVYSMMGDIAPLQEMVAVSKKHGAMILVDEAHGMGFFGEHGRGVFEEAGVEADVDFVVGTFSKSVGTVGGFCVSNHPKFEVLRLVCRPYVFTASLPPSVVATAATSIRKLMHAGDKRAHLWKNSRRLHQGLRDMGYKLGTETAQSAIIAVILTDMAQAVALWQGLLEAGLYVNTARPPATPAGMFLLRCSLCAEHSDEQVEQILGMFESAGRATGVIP

T1 sequence (Q7APF7 entry or part of it): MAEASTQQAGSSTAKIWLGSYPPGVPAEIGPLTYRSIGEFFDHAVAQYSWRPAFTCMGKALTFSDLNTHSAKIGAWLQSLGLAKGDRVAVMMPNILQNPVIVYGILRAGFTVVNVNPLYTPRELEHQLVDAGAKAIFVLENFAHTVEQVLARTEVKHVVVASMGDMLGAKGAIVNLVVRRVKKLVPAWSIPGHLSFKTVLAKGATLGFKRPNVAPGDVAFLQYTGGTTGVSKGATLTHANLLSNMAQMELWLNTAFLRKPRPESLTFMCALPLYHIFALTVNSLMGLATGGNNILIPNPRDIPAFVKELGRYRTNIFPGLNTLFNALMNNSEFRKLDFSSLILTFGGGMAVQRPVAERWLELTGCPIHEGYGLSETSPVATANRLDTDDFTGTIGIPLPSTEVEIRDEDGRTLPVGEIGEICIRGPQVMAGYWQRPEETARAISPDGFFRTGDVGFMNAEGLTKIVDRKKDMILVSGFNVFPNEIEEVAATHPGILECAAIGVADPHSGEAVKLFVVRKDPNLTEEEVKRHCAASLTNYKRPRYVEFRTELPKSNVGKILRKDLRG

**Q.** With CC(C)(COP(=O)(O)OP(=O)(O)OC[C@H]1O[C@@H](n2cnc3c(N)ncnc32)[C@H](O)[C@@H]1OP(=O)(O)O)[C@@H](O)C(=O)NCCC(=O)NCCS [CoA] as the molecule, how does the “[3H]palmitoyl-CoA formation, heptane extraction, scintillation counting” value ([1]; 200 uM [3H]palmitate) read?
**A.** acyl-CoA synthetase FadD is able to form acyl-CoA

**Q.** Which “[3H]palmitoyl-CoA formation, heptane extraction, scintillation counting” value ([1]; 200 uM palmitate, labelled compound) does the source give for CCCCCCCCCCCCCCCC(=O)O [palmitate] here?
**A.** Using FadDSm in the acylation assay resulted in an increase in the amount of acyl-CoA

**Q.** For CCCCCCCCCCCCCCCC(=O)SCCNC(=O)CCNC(=O)[C@H](O)C(C)(C)COP(=O)(O)OP(=O)(O)OC[C@H]1O[C@@H](n2cnc3c(N)ncnc32)[C@H](O)[C@@H]1OP(=O)(O)O [palmitoyl-CoA], which “L-[14C]serine incorporation into 3-oxo-sphinganine, TLC autoradiography, empty-v” value [2] is on record?
**A.** using the SPTs from C. crescentus, E. coli BL21(DE3) or S. wittichii, and palmitoyl-CoA as thioester

**Q.** What about the “L-[14C]serine incorporation into 3-oxo-sphinganine, TLC autoradiography, empty-v” value [3] of the same molecule?
**A.** using the SPTs from C. crescentus, E. coli BL21(DE3) or S. wittichii, and palmitoyl-CoA as thioester

**Q.** What about the “L-[14C]serine incorporation into 3-oxo-sphinganine, TLC autoradiography, empty-v” value [4] of the same molecule?
**A.** using the SPTs from C. crescentus, E. coli BL21(DE3) or S. wittichii, and palmitoyl-CoA as thioester
